Results on 79 compounds are retold here after the METLIN SMRT retention time set (Domingo-Almenara et al. 2019).

Molecules are shown by their SMILES.

The series in a line: gradient 5% acetonitrile 3 min, to 50% in 2 min, to 85% in 15 min, held 3 min, 100 µL/min. The following applies: column: Zorbax Extend-C18 2.1 x 50 mm; eluents: water / acetonitrile, 0.1% formic acid. A digest of the protocol: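 Standards, all pure, were combined into mixtures of ~100 molecules and run at 100 μL/min on a Zorbax Extend-C18 column (2.1 × 50 mm, 1.8 μm) with water and acetonitrile, each containing 0.1% formic acid. A coupled quadrupole time-of-flight mass spectrometer operated in positive and negative ionization mode. Retention time values come from computationally picked adduct peaks, each inspected manually.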
In the case of `O=c1ccc(-c2ccc3c(c2)OCO3)nn1Cc1nc(-c2cccc(Cl)c2)no1`, the RP-LC retention time amounted to 1040 s.
For `CCN(c1cccc(C)c1)S(=O)(=O)c1cc(-c2[nH]ncc2C(=O)N(C)C)oc1C`, the RP-LC retention time stood at 792 s.
As for `O=C(Cn1cnc2c(-c3ccc(Cl)cc3)csc2c1=O)N1CCCCC1`, the RP-LC retention time came out at 922 s.
Regarding `CCN1CCN(CCNC(=O)CN2CCCc3nc(C4CC4)ncc3C2=O)CC1`, the RP-LC retention time was found to be 564 s.
`Cn1nc(C(=O)N2CCC3(CC2)N=C(c2ccc(Br)cc2)NO3)c2ccccc21` gave an RP-LC retention time of 916 s.
`CCc1ccccc1NS(=O)(=O)c1cc(-c2cc(C(F)(F)F)on2)sc1C` gave an RP-LC retention time of 1210 s.
With `Cc1cc(C(=O)N2CCN(CCNC(=O)c3ccsc3)CC2)c(C)o1`, the RP-LC retention time worked out at 554 s.
Next, `Cc1ccc(C(=O)N2CCCCCNC(=O)[C@@H]3CCC[C@@H]32)s1`: 740 s; `Cc1nc(N2CCOCC2)c2c(C(=O)Nc3ccc(C)c(C)c3)c(C)oc2n1`: 882 s.
Next, `O=C(Nc1nnc(-c2cccs2)o1)c1cccc(N2C(=O)CCC2=O)c1`: 617 s; `O=C(CSc1nc(-c2ccccc2)cs1)NCc1ccco1`: 839 s; `Cc1cnc(-c2ccccc2)n1C1CCN(S(=O)(=O)Cc2ccccc2)CC1`: 686 s.
Take `CCOC(=O)c1c(C)oc2nc(C)nc(NCCCN(C)c3ccccc3)c12`: the RP-LC retention time was found to be 701 s.
In the case of `CCN1CCN(CCCNC(=O)C(C)n2c3ccccc3c3cnn(C)c(=O)c32)CC1` (centres undefined), the RP-LC retention time is 553 s.
For the compound `COc1ccc(NC(=O)C2CCN(c3cncnc3N(C)C)CC2)cc1OC`, the RP-LC retention time stood at 592 s.
With `Cc1oc(-c2[nH]ncc2C(=O)N(C)C)cc1S(=O)(=O)NC1CCCC1`, the RP-LC retention time worked out at 650 s.
Next, `CCOc1ccccc1CN1C(=O)c2ccccc2C1C(=O)NC(C)CC` (centres undefined): 899 s; `COc1ccc(CN(C)Cc2cc(=O)n3cc(C)ccc3n2)cc1`: 598 s.
For the compound `CCC(C)NC(=O)c1cnn(-c2ccc(-c3nc(C)no3)cn2)c1C` (centres undefined), the RP-LC retention time turned out to be 821 s.
In turn, `N#Cc1ccc(S(=O)(=O)N2CCCN(S(=O)(=O)c3ccccc3)CCC(=O)NCC2)cc1` had an RP-LC retention time of 797 s.
On to `Cc1nc2ccn(Cc3ccco3)c(=O)c2cc1C(=O)N1CCN(C)CC1`, for which the RP-LC retention time is 644 s.
On to `CCSc1nccc2c1ccn2CC(=O)NCc1ccc(OC)cc1OC`, for which the RP-LC retention time was found to be 651 s.
The compound `Cn1nc(C(=O)N2CCCC2)c2c1CCN(C(=O)Nc1ccccc1Br)C2` had an RP-LC retention time of 737 s.
In the case of `O=C(CN1c2ccc(F)cc2-c2ccccc2S1(=O)=O)NCc1ccc2c(c1)OCO2`, the RP-LC retention time was determined as 913 s.
`O=C(NCCc1ccccc1)NCCn1c(-c2ccccc2)nc2cccnc21` displayed an RP-LC retention time of 683 s.
Consider `CN1C(=O)C2CCCCN2c2ccc(C(=O)NCCCN3CCN(C4CCCCC4)CC3)cc21` (centres undefined), for which the RP-LC retention time is 594 s.
The compound `COc1ccccc1OCCNC(=O)Cn1nc2c(cc1=O)CCCC2` came in with an RP-LC retention time of 704 s.
Next, `Cc1ccc(S(=O)(=O)N2CCC(CCNC(=O)NC(C)(C)C)CC2)cc1`: 885 s; `O=C1COc2ccc(S(=O)(=O)N3CCC(C(=O)NC4CCCc5ccccc54)CC3)cc2N1` (centres undefined): 814 s; `CCOC(=O)c1csc(NC(=O)c2csc3nc(-c4ccc(F)cc4)cn23)n1`: 913 s.
Under `CCn1cc(-c2nc(C(=O)N3CCN(c4ccccc4F)CC3)cs2)c2cccnc21` stands 1040 s; under `O=S(=O)(c1ccccc1F)N1CCC2(CCN(c3cccnc3)C2)C1` (centres undefined), 644 s.
`Cc1ccc(F)cc1NC(=O)Cn1nc(N2CCC(C)CC2)c2ccccc2c1=O` returned an RP-LC retention time of 1180 s.
`COC(=O)CC1=CC(SCC(=O)N2CCN(c3ccccc3)CC2)=Nc2ccccc2N1`: the RP-LC retention time amounted to 1080 s.
In the case of `CC1=C(c2ccccc2)S(=O)(=O)N=C1N1CCCN(C(=O)Nc2cccc(F)c2)CC1`, the RP-LC retention time stood at 849 s.
Next, `O=C(CCn1nnc2cc(-c3noc(-c4ccccc4Br)n3)ccc21)N1CCCC1`: 954 s.
In turn, `Cc1ccc(CNC(=O)c2cn3c(n2)COCC3)cc1C` had an RP-LC retention time of 704 s.
In turn, `Cc1cccc(-c2noc(Cn3c(=O)n(-c4cccc(F)c4)c(=O)c4sccc43)n2)c1` returned an RP-LC retention time of 1030 s.
Take `O=S(=O)(c1ccc2c(c1)OCCO2)N(CCc1cccs1)Cc1cccnc1`: the RP-LC retention time worked out at 655 s.
In turn, `COc1ccc2nc(C(=O)NCc3ccccc3C)cn2n1` came in with an RP-LC retention time of 843 s.
For the compound `COCCN1CC(CO)C2(CCN(Cc3ccc(OC)cc3OC)CC2)C1` (centres undefined), the RP-LC retention time came out at 540 s.
`CCc1ccccc1NC(=O)Cn1c(C)nc2onc(C)c2c1=O` came in with an RP-LC retention time of 845 s.
Next, `CSc1cccc(NC(=O)c2c[nH]c3ncccc23)c1`: 752 s; `COc1cccc(C(=O)N2CCC3(CC2)NC(=O)c2ccccc2N3C)c1`: 718 s.
Next, `CCN(CC)S(=O)(=O)c1ccc2c(c1)cc(C(=O)NCCCN1CCCC(C)C1)n2C` (centres undefined): 691 s.
For the compound `O=S(=O)(Cc1ccc(F)cc1Cl)N1CCc2nc(-c3ccc(F)cc3)ncc2C1`, the RP-LC retention time came out at 1100 s.
Consider `CC(C)NC(=O)CSc1ccc(N2CCN(c3ccccc3)CC2)nn1`, for which the RP-LC retention time came to 708 s.
In the case of `O=C(NCc1ccc(F)cc1)N1CCC(c2noc(C3CC3)n2)C1` (centres undefined), the RP-LC retention time worked out at 751 s.
On to `Cc1ccc(Cn2c(N3CCCC(C(=O)NCc4ccccc4)C3)nc3ccsc3c2=O)cc1` (centres undefined), for which the RP-LC retention time was found to be 958 s.
Next, `Cc1cccc(S(=O)(=O)N2CCc3c(c(-c4nnc(-c5ccccc5F)o4)nn3C)C2)c1`: 999 s; `Cc1ccccc1CC(=O)Nc1ccc2c(c1)CCC(=O)N2CC(C)C`: 910 s; `COc1ccc(N2CC(c3nc(-c4ccccc4F)no3)CC2=O)cc1OC` (centres undefined): 808 s.
`CCC1(C(=O)Nc2cc(OC)ccc2OC)CCCCC(=O)N1` (centres undefined) returned an RP-LC retention time of 722 s.
Consider `O=C(NC1CCCCCC1)C1CCN(c2cc(N3CCSCC3)ncn2)CC1`, for which the RP-LC retention time was 710 s.
As to `Cc1ccc(-c2nc(-c3ccc4c(c3)nnn4CCN3CCOCC3)no2)cc1C`, the RP-LC retention time was 760 s.
In turn, `Cc1nc2cc(NC(=O)c3csc(Nc4ncccn4)n3)ccc2s1` registered an RP-LC retention time of 706 s.
Compound `CC(C)(C)c1ccc(-c2nc(-c3ccc(S(=O)(=O)N4CCOCC4)cc3)no2)cc1` had an RP-LC retention time of 1400 s.
For `Cc1ccc(Cn2c(N3CCCC(C(=O)Nc4ccc(C)c(F)c4)C3)nc3ccsc3c2=O)cc1` (centres undefined), the RP-LC retention time was 1170 s.
In turn, `O=C(c1cc(=O)c(OCc2ccc(F)cc2)co1)N1CCN(c2ncccn2)CC1` had an RP-LC retention time of 696 s.
On to `COc1ccccc1-c1noc(Cn2cnc3c(cnn3-c3ccc(Cl)cc3)c2=O)n1`, for which the RP-LC retention time worked out at 1010 s.
`COC(=O)CCc1sc(NC2CCCCC2)nc1-c1ccc(OC)cc1` displayed an RP-LC retention time of 856 s.
Under `COc1cc(C(=O)N2CCC3(CC2)Nc2cc(F)ccc2-n2cccc23)cc(OC)c1OC` stands 868 s.
As for `O=S(=O)(NCCN1CCN(c2ccccc2F)CC1)c1cc(F)ccc1F`, the RP-LC retention time worked out at 594 s.
`COc1ccc(C2CC(=O)N(c3ccc(F)c(F)c3)C(=O)C2)cc1` displayed an RP-LC retention time of 910 s.
Under `Cc1ccc(C)c(NC(=O)C(=O)NCC(c2ccc3c(c2)OCO3)N2CCN(C)CC2)c1` (centres undefined) stands 702 s.
In the case of `O=C(CCc1nnn2c1CN(C(=O)NC1CCCCC1)CC2)N1CCOCC1`, the RP-LC retention time amounted to 634 s.
The compound `CCOc1ccc(OCC)c(NC(=O)C(=O)c2ccc[nH]2)c1` registered an RP-LC retention time of 1070 s.
Take `Cn1cc2nc(SCC(=O)Nc3ccc(Cl)cc3F)n(CC3CC3)c(=O)c2n1`: the RP-LC retention time stood at 954 s.
Next, `CS(=O)(=O)N(Cc1ccncc1)C1CN(C(=O)c2ccoc2)C1`: 552 s.
The compound `CC(C)CN1CCn2cc(C(=O)NCc3ccc(F)c(Cl)c3)nc2C1` registered an RP-LC retention time of 647 s.
Next, `CCc1nnc(-c2cn(CC(=O)NCCCc3ccccc3)c3ccccc23)o1`: 877 s; `Cc1ccccc1OCc1nc(-c2cccc(-c3ccn[nH]3)c2)no1`: 1020 s; `O=S(=O)(c1cccn2c(SCc3ccc(F)cc3Cl)nnc12)N1CCCCC1`: 879 s.
As for `CC1=C(c2ccc(Cl)cc2)S(=O)(=O)N=C1N1CCCN(C(=O)c2cccnc2)CC1`, the RP-LC retention time came out at 701 s.
On to `Cc1noc(C2CN(C(=O)Nc3ccccc3C)CC23CCOCC3)n1` (centres undefined), for which the RP-LC retention time stood at 700 s.
For `CN(CC(=O)N1CCN(Cc2ccccc2)CC1)S(=O)(=O)c1ccc2c(c1)CCCC(=O)N2`, the RP-LC retention time is 600 s.
`COc1ccc(C(CC(=O)N2CCCCCC2)N2Cc3ccccc3C2=O)cc1OC` (centres undefined) displayed an RP-LC retention time of 785 s.
Compound `CCOc1ccccc1NC(=O)N1CCC2(C1)C(=O)N(C)c1ccc(OC)cc12` (centres undefined) had an RP-LC retention time of 882 s.
Next, `COc1ccc(C(=O)Nc2ccc(-c3cn4ccc(C)nc4n3)cc2)cc1OC`: 604 s.
